#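 Interpolation was linear, between the two tested concentrations surrounding the appropriate level; five concentrations were tested over 48 hours in 96-well plates. TGI: concentration producing complete growth inhibition.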
# Columns and labels:
# Assay in all cases: NCI-60 cell line screen, 48 h
# [1] = test system: SNB-19 CNS
# [2] = test system: TK-10 renal
# [3] = test system: SK-MEL-5 melanoma
# [4] = test system: HL-60(TB) leukemia
# [5] = test system: M14 melanoma
# [6] = test system: U251 CNS
# [7] = test system: IGROV1 ovarian
# [8] = test system: MOLT-4 leukemia
# [9] = test system: HOP-92 NSCLC
# [10] = test system: A498 renal
# [11] = test system: MDA-MB-435
# [12] = test system: BT-549 breast
# [13] = test system: EKVX NSCLC
SMILES,TGI [1],TGI [2],TGI [3],TGI [4],TGI [5],TGI [6],TGI [7],TGI [8],TGI [9],TGI [10],TGI [11],TGI [12],TGI [13]
O=C(c1cccs1)N(C(=S)N1CCN(c2ccccn2)CC1)C1CCCCC1,> 100 µM,> 100 µM,> 100 µM,> 100 µM,> 100 µM,> 100 µM,> 100 µM,> 100 µM,> 100 µM,,,,
COc1ccc2cc(/C=N\NC(=O)Nc3cccc4ccccc34)ccc2c1,53.5 µM,56.5 µM,> 100 µM,,> 100 µM,29.9 µM,> 100 µM,> 100 µM,,31.3 µM,> 100 µM,> 100 µM,> 100 µM
C#C[C@]1(O)CCC2C3CCc4cc(Oc5nc(F)nc(-c6c7cc8ccccc8cc7c7n6CCS7)n5)ccc4C3CCC21C (some centres undefined),> 100 µM,> 100 µM,> 100 µM,> 100 µM,96 µM,> 100 µM,> 100 µM,> 100 µM,> 100 µM,,,,> 100 µM
Cn1c(Nc2ccccc2)c(C=Nc2ccccc2)c(=O)n(C)c1=O,,> 100 µM,,> 100 µM,> 100 µM,> 100 µM,> 100 µM,> 100 µM,> 100 µM,> 100 µM,> 100 µM,> 100 µM,
CN(C)C(=O)Nc1cc2c3c(c1)CCCN3CCC2,> 10 µM,> 10 µM,> 10 µM,> 10 µM,> 10 µM,> 10 µM,> 10 µM,> 10 µM,> 10 µM,> 10 µM,> 10 µM,,> 10 µM
O=c1c2cccnc2cc(-c2ccccc2)n1CCO,> 100 µM,> 100 µM,> 100 µM,> 100 µM,> 100 µM,> 100 µM,> 100 µM,> 100 µM,,> 100 µM,> 100 µM,> 100 µM,> 100 µM
O=c1[nH]c(=S)[nH]n1C(=S)n1[nH]c(=S)[nH]c1=O,> 100 µM,> 100 µM,> 100 µM,> 100 µM,> 100 µM,> 100 µM,> 100 µM,> 100 µM,> 100 µM,> 100 µM,> 100 µM,,> 100 µM
COC1=C(N2CC2)C(=O)c2nc3n(c2C1=O)CCC3,2.92 µM,7.08 µM,2.56 µM,0.595 µM,0.619 µM,2.86 µM,3.15 µM,2.41 µM,7.74 µM,2.86 µM,3.32 µM,2.39 µM,
COC(=O)C1[C@@H](C(=O)OC)C12C=Cc1ccccc1C=C2 (some centres undefined),> 100 µM,> 100 µM,> 100 µM,> 100 µM,> 100 µM,> 100 µM,> 100 µM,> 100 µM,> 100 µM,> 100 µM,,,> 100 µM
COC(=O)c1ccccc1/C=C1\Cc2cc(C)cc(C)c2C1=O,> 100 µM,> 100 µM,> 100 µM,> 100 µM,,> 100 µM,> 100 µM,> 100 µM,,> 100 µM,,,> 100 µM
Cc1ccc(S(=O)(=O)NC2C(=O)c3ccccc3C(=O)C2n2cnc3ccccc32)cc1 (centres undefined),89.7 µM,49.6 µM,42.6 µM,40.8 µM,> 100 µM,> 100 µM,75 µM,68.1 µM,> 100 µM,,36.4 µM,> 100 µM,> 100 µM
COc1cc(C2C3=C(COC3=O)Oc3cc4c(cc32)OCO4)ccc1OC(C)=O (centres undefined),> 100 µM,> 100 µM,> 100 µM,0.907 µM,> 100 µM,> 100 µM,,98.7 µM,,> 30.3 µM,,12.6 µM,> 100 µM
Cc1cc(NCCCCCCCCCC[n+]2c(C)cc(N)c3ccccc32)c2ccccc2n1,,18.3 µM,0.695 µM,,12 µM,4.3 µM,17.3 µM,5.23 µM,7.62 µM,15.4 µM,5.86 µM,> 100 µM,> 100 µM
Fc1ccccc1-c1nn2c(C34CC5CC(CC(C5)C3)C4)nnc2s1,> 100 µM,,> 100 µM,,> 100 µM,> 100 µM,> 100 µM,> 100 µM,> 100 µM,> 100 µM,> 100 µM,,> 100 µM
Cc1ccc(SCC(CF)OCn2cc(F)c(=O)[nH]c2=O)cc1 (centres undefined),> 100 µM,> 100 µM,> 100 µM,> 100 µM,> 100 µM,> 100 µM,> 100 µM,> 100 µM,> 100 µM,> 100 µM,> 100 µM,,> 100 µM
O=C1CCC2CCC1C2 (centres undefined),> 100 µM,> 100 µM,> 100 µM,> 100 µM,> 100 µM,> 100 µM,,> 100 µM,,> 100 µM,> 100 µM,,
CCOP(=O)(OCC)c1ccc(=O)[nH]c1-c1cccs1,> 100 µM,> 100 µM,> 100 µM,,> 100 µM,> 100 µM,> 100 µM,> 100 µM,> 100 µM,> 100 µM,> 100 µM,> 100 µM,> 100 µM
COc1ccc(C2=C(N)c3c(OC)cccc3C2=O)cc1,> 100 µM,,,> 100 µM,> 100 µM,> 100 µM,> 100 µM,> 100 µM,,> 100 µM,> 100 µM,> 100 µM,> 100 µM
O=C1c2c(ccc3c2CCC3)CC12Cc1cc3c(cc1C2)CCC3,> 100 µM,> 100 µM,> 100 µM,> 100 µM,> 100 µM,> 100 µM,> 100 µM,> 100 µM,> 100 µM,> 100 µM,> 100 µM,,> 100 µM
CSC1=N/C(=C\c2ccco2)C(=O)N1CN1CCCCC1,> 100 µM,> 100 µM,> 100 µM,,> 100 µM,> 100 µM,> 100 µM,> 100 µM,87.2 µM,> 100 µM,> 100 µM,,> 100 µM

SMILES,TGI [1],TGI [2],TGI [3],TGI [4],TGI [5],TGI [6],TGI [7],TGI [8],TGI [9],TGI [10],TGI [11],TGI [12],TGI [13]
CCCCCCCCC/C=C1\CC(CO)(COC(=O)C2CCCCC2)OC1=O (centres undefined),40.9 µM,49.8 µM,27.3 µM,,55.9 µM,42.6 µM,37.7 µM,57.6 µM,22.2 µM,50.6 µM,34.4 µM,36.2 µM,39.1 µM
C=C(Br)CN(C(C)=O)C1CCCCC1,> 100 µM,> 100 µM,> 100 µM,> 100 µM,> 100 µM,> 100 µM,> 100 µM,> 100 µM,,> 100 µM,> 100 µM,,> 100 µM
COc1cc(C2c3cc4c(cc3OC(Nc3ccccc3)C2C)OCO4)cc(OC)c1OC (centres undefined),> 100 µM,> 100 µM,,0.593 µM,> 86.5 µM,21.3 µM,> 100 µM,8.28 µM,,1.69 µM,0.527 µM,> 90.9 µM,> 88.5 µM
O=C(O)c1ccccc1C(=O)Nn1cnnc1,> 100 µM,> 100 µM,> 100 µM,,> 100 µM,> 100 µM,> 100 µM,> 100 µM,> 100 µM,,> 100 µM,> 100 µM,> 100 µM
O=C(O)c1ccc2c(c1)CC1(C2)Cc2ccccc2C1=O (centres undefined),> 100 µM,> 100 µM,> 100 µM,> 100 µM,> 100 µM,> 100 µM,> 100 µM,> 100 µM,> 100 µM,,> 100 µM,> 100 µM,> 100 µM
COc1cc(NP(=O)(Oc2ccccc2)Oc2ccccc2)ccc1Nc1c2ccccc2nc2c1[nH]c1ccccc12,> 100 µM,12.3 µM,10.3 µM,,7.02 µM,6.85 µM,> 100 µM,0.204 µM,3.8 µM,14 µM,21.5 µM,,44.9 µM
COc1ccc(NC(C)=O)cc1C1CCC(=O)N1 (centres undefined),> 100 µM,> 100 µM,> 100 µM,> 100 µM,> 100 µM,> 100 µM,> 100 µM,> 100 µM,> 100 µM,> 100 µM,> 100 µM,,> 100 µM
N#Cc1sc2c(c1OC(=O)c1cccs1)c(=O)n(-c1ccccc1)c(=S)n2-c1ccccc1,> 100 µM,> 100 µM,29.5 µM,47.5 µM,38.2 µM,55.5 µM,39.4 µM,62.3 µM,,,> 100 µM,77.8 µM,89.9 µM
COC(=O)C1=Cc2cc(OC)c(O)cc2[C@@H](c2ccc(O)c(OC)c2)[C@@H]1C(=O)OC,> 100 µM,,> 100 µM,> 100 µM,> 100 µM,> 100 µM,> 100 µM,> 100 µM,> 100 µM,> 100 µM,> 100 µM,,> 100 µM
O=c1[nH]nc(Cc2ccccc2)n1/N=C/c1ccccc1Cl,> 100 µM,> 100 µM,> 100 µM,,,> 100 µM,> 100 µM,> 100 µM,> 100 µM,> 100 µM,> 100 µM,> 100 µM,> 100 µM
COc1cc(NCc2ccc3nc(OC)c(OC)nc3c2)cc(OC)c1OC,> 100 µM,,> 100 µM,> 100 µM,> 100 µM,> 100 µM,> 100 µM,> 100 µM,> 100 µM,> 100 µM,> 100 µM,,> 100 µM
CC/C=C/C(=O)CC(O)(C(F)(F)F)C(F)(F)F,> 100 µM,> 100 µM,> 100 µM,> 100 µM,> 100 µM,> 100 µM,> 100 µM,> 100 µM,86.3 µM,89.4 µM,> 100 µM,,> 100 µM
C[C@H]1C[C@H](C)c2ccccc2N(C)C1=Nc1ccccc1,> 100 µM,55.6 µM,31.3 µM,48.3 µM,56.2 µM,,78 µM,72.7 µM,40.1 µM,84.4 µM,52.8 µM,,> 100 µM
OC(C/C(=N\N1CCCCC1)c1cccs1)(C(F)(F)F)C(F)(F)F,> 10 µM,> 10 µM,> 10 µM,> 10 µM,> 10 µM,> 10 µM,> 10 µM,> 10 µM,> 10 µM,> 10 µM,> 10 µM,,> 10 µM
O=C(c1ccco1)N(C(=S)N1CCN(c2ccccn2)CC1)C1CCCCC1,> 100 µM,> 100 µM,> 100 µM,> 100 µM,> 100 µM,> 100 µM,> 100 µM,> 100 µM,> 100 µM,,,,
O=C1c2ccccc2-c2ccc(N=Nc3c(O)ccc4ccccc34)cc21,> 100 µM,> 100 µM,> 100 µM,,> 100 µM,> 100 µM,> 100 µM,> 100 µM,> 100 µM,> 100 µM,> 100 µM,> 100 µM,> 100 µM
O=c1cc(CBr)c2ccc(O)cc2o1,> 100 µM,> 100 µM,> 100 µM,> 100 µM,> 100 µM,> 100 µM,> 100 µM,> 100 µM,,> 100 µM,> 100 µM,77 µM,91.1 µM
CCOC(=O)[C@@H]1ON2O[C@H](OC3CCCC3(c3ccccc3)c3ccccc3)C[C@H]3OC(=O)[C@@H]1C32 (some centres undefined),,> 100 µM,> 100 µM,59.1 µM,> 100 µM,> 100 µM,> 100 µM,> 100 µM,> 100 µM,95.9 µM,97.9 µM,,> 100 µM
Cc1cccc(C)c1NC(=S)NC=C(C(N)=O)C(N)=O,> 100 µM,> 100 µM,> 100 µM,,> 100 µM,> 100 µM,> 100 µM,> 100 µM,> 100 µM,> 100 µM,> 100 µM,> 100 µM,> 100 µM
c1ccc(Nc2nnc(Cn3ccc4ccccc43)s2)cc1,> 100 µM,> 100 µM,> 100 µM,,> 100 µM,> 100 µM,> 100 µM,> 100 µM,> 100 µM,> 100 µM,> 100 µM,> 100 µM,> 100 µM
